# Results published in ChEMBL document CHEMBL1143305, “SAR and biological evaluation of analogues of a small molecule histone deacetylase inhibitor N-(2-aminophenyl)-4-((4-(pyridin-3-yl)pyrimidin-2-ylamino)methyl)benzamide (MGCD0103)” (Bioorg Med Chem Lett, 2009).
# Activity calls are given as the source filed them. The calls are words filed in the database; no cut-off is given here.
# Key:
# [1] = tested on: Mus musculus; test: Toxicity in mouse xenografted with human H460 cells at 5 to 20 mg/kg, po administered once daily for 12 days; type: organism-based; design: dose 5-20 mg/kg, route oral; conditions: in vivo, 288 h
# [2] = molecular target: Histone deacetylase 2 (Homo sapiens, UniProt Q92769)
# [3] = molecular target: T1, Protein deacetylase HDAC6 (Homo sapiens, UniProt Q9UBN7); test: Inhibition of HDAC6
# T1 sequence (Q9UBN7 whole entry): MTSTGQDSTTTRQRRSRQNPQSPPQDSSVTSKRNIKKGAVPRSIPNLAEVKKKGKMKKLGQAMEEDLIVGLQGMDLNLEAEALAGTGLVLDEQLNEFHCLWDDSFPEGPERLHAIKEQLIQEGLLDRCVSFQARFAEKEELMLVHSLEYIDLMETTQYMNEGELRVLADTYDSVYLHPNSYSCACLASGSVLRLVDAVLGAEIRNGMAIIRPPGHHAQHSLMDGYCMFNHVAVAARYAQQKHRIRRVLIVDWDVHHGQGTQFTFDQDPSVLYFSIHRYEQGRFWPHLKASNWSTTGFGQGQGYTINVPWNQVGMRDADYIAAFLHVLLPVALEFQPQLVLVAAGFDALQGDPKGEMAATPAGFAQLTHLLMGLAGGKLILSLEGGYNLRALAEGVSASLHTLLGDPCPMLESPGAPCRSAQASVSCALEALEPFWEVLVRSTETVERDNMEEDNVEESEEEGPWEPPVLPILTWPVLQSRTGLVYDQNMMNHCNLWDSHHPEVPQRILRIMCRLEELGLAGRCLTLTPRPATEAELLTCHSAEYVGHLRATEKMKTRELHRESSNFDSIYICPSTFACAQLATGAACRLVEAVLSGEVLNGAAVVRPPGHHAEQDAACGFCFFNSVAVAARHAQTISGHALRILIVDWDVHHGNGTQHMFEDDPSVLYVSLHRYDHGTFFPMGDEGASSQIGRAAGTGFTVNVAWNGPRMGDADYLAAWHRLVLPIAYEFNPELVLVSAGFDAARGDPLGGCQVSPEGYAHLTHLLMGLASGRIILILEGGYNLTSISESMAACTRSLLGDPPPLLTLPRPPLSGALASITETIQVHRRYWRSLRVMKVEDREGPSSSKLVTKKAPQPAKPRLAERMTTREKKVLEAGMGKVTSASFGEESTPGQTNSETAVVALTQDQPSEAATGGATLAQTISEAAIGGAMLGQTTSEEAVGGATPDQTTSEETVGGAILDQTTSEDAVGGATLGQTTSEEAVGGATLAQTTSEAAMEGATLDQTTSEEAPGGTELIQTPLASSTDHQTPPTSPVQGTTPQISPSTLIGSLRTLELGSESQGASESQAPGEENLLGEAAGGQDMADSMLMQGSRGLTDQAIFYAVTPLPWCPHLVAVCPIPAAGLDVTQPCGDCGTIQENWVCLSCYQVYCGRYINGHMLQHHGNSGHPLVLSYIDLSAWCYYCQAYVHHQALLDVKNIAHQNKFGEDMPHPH
# [4] = Antitumor activity against human TSU-Pr1 cells xenografted in mouse at 20 mg/kg, po administered once daily for 12 days relative to control; type: functional
# [5] = molecular target: Histone deacetylase 3 (Homo sapiens, UniProt O15379); test: Inhibition of HDAC3
# [6] = Antitumor activity against human AZ-521 cells xenografted in mouse at 10 mg/kg, po administered once daily for 12 days relative to control; type: functional
# [7] = tested on: HCT-116; test: Induction of p21WAF1/CIP1 expression in human HCT116 cells assessed as […] after 16 hrs by luciferase assay; type: functional, cell-based
# [8] = Metabolic stability in human microsomes assessed as biotransformation rate; type: ADME, Microsome
# [9] = tested on: Mus musculus; test: Toxicity in mouse xenografted with human HCT15 cells at 5 to 20 mg/kg, po administered once daily for 12 days; type: organism-based, HCT-15; design: dose 5-20 mg/kg, route oral; conditions: in vivo, 288 h
# [10] = tested on: Mus musculus; test: Toxicity in mouse xenografted with human TSU-Pr1 cells at 5 to 20 mg/kg, po administered once daily for 12 days; type: organism-based; design: dose 5-20 mg/kg, route oral; conditions: in vivo, 288 h
# [11] = tested on: HCT-116; test: cells; conditions: Homo sapiens
# Description: Antiproliferative activity against human HCT116 cells by MTT assay
# [12] = Solubility at pH 6.8; type: physicochemical; conditions: buffer
# [13] = Clearance in Sprague-Dawley rat at 2.5 mg/kg, iv up to 6 hrs; type: ADME, organism-based; design: dose 2.5 mg/kg, route intravenous; conditions: in vivo
# [14] = Antitumor activity against human AZ-521 cells xenografted in mouse at 5 mg/kg, po administered once daily for 12 days relative to control; type: functional
# [15] = molecular target: Histone deacetylase 5 (Homo sapiens, UniProt Q9UQL6); test: Inhibition of HDAC5
# [16] = tested on: Mus musculus; test: Toxicity in mouse xenografted with human AZ-521 cells at 5 to 20 mg/kg, po administered once daily for 12 days; type: organism-based; design: dose 5-20 mg/kg, route oral; conditions: in vivo, 288 h
# Chain of Histone deacetylase 5 (Q9UQL6 whole entry): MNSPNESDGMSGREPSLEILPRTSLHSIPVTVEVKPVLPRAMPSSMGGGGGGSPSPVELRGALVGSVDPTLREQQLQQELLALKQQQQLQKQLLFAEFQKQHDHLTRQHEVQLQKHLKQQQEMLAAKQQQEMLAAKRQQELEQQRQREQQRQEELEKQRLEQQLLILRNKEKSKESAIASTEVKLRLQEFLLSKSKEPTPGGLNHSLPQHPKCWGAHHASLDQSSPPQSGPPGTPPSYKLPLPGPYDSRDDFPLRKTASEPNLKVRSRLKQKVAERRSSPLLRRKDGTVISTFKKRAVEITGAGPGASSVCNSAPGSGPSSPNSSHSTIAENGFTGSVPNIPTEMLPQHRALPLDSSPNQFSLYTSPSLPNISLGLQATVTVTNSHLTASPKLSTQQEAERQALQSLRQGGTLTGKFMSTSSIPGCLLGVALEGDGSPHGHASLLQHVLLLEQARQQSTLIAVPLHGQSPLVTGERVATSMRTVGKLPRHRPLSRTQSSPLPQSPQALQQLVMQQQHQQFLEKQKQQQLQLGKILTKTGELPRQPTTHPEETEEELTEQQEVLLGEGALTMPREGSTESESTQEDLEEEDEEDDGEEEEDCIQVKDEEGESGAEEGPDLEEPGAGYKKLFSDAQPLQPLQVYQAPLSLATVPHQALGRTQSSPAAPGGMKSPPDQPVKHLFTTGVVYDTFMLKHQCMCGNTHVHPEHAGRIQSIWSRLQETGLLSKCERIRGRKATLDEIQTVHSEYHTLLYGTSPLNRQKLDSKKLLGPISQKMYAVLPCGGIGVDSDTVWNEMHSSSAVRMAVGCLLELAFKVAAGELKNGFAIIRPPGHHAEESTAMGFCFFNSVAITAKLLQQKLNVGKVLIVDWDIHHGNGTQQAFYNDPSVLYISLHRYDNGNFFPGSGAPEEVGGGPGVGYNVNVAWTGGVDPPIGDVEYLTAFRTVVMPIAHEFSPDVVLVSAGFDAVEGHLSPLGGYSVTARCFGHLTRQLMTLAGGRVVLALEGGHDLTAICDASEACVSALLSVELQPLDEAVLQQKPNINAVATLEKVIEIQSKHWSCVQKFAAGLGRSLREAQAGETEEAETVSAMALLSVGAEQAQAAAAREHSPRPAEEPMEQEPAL
# Chain of Histone deacetylase 2 (Q92769 whole entry): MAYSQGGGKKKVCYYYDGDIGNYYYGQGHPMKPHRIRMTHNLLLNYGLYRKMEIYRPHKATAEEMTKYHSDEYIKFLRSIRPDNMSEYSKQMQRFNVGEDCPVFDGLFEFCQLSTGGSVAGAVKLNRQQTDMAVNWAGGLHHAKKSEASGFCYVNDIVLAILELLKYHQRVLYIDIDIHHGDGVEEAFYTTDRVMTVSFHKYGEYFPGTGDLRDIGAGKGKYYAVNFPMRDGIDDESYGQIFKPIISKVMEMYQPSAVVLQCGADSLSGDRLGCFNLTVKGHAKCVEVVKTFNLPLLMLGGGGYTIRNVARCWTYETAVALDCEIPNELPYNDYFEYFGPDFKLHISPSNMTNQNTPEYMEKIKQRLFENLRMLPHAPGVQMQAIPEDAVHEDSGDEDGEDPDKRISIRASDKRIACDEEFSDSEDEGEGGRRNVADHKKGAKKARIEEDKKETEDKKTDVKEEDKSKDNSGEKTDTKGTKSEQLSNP
# Chain of Histone deacetylase 3 (O15379 whole entry): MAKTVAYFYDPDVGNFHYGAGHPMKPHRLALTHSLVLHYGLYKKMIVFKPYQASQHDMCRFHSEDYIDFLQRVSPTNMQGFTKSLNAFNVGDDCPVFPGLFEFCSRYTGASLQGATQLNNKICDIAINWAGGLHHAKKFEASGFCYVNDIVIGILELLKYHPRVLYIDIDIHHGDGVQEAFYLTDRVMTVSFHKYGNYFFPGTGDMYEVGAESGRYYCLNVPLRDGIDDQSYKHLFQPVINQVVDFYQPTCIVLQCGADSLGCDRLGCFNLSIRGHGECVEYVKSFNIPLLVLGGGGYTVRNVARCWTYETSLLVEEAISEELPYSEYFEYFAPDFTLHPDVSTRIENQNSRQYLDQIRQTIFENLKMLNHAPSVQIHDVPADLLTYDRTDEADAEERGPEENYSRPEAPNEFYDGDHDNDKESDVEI
structure (smiles),measurement,setting,value
Nc1ccccc1NC(=O)c1ccc(CNc2nccc(-c3ccn[nH]3)n2)cc1,Activity,[1],Non-toxic
same,IC50,[2],140 nM
same,IC50,[3],> 20 µM
same,T/C,[4],48%
same,IC50,[5],320 nM
same,T/C,[6],53%
same,Activity,[7],inactive
same,Activity,[8],0.01 nmol/mg/min
same,Activity,[9],Non-toxic
same,Activity,[10],Non-toxic
same,IC50,[11],300 nM
same,solubility,[12],77 µg/mL
same,clearance,[13],9.17 mL/min/kg
same,T/C,[14],43%
same,IC50,[15],> 10 µM
same,Activity,[16],Non-toxic
